{"source": "patent US20040014217A1", "about": "“Methods of transfection” (priority 2000, published 2004)", "key": {"[1]": {"test_system": "mouse lung", "test": "Transfection of mouse lungs in vivo (luciferase), intra-tracheal instillation", "method": "Lipid (lipofectin) (1 mg/ml) and peptide 6 ([sequence]) (1 mg/ml) were mixed in one tube and pCILuc Plasmid DNA (1 mg/ml) and EGTA in phosphate buffer saline (PBS) were mixed together in another tube then the contents of the two tubes were mixed so that the final ratios were 0.75 μg lipid to 1 μg DNA and a final concentration of 100 mM EGTA (or no EGTA for the control). The protocol was repeated to give vector complexes having a final EGTA concentration of 400 mM.\nEach mouse received 8 μg of plasmid DNA in a volume of 50 μl.\nCell lysis buffer (Promega, Southampton, England) was added to each lung (4 μl/mg). The tissue was then homogenised two times, on ice, for 30 seconds each time (Polytron PT10-35, Philip Harris, Nottingham, England). Lung homogenates were is centrifuged at 10,000×g at 4 C for 10 minutes, then 20 μl of the supernatant were added to 100 μl of luciferase assay buffer (Promega) and luminescence measured in a luminometer (TD-20/20; Steptech Instruments, Stevenage, England). All results were repeated in triplicate and the mean calculated.\nThe total protein concentration in the lysate was measured using a protein assay kit (Bio-Rad, Hemel Hempstead, Herts, England) and using bovine serum albumin as a standard. Luciferase activity was expressed in relative light units (RLU) for each sample of lung lysate minus the background and normalised per mg of protein."}, "[2]": {"test_system": "Human airway epithelial (HAE) cells", "test": "GFP transfection of HAE cells with or without EGTA (FACS), Example 13", "type": "cell-based", "settings": "EGTA 1 mM", "experimental": "Human airway epithelial (HAE) cells, type HEAO— were seeded at 80% into 24 well plates. The cells were grown in Modified Eagle Medium (MEM) obtained from Life Technologies (Paisley, Scotland) supplemented with 10% foetal calf serum and 2 mM L-glutamine to form cultures of confluent cells. Subconfluent cultures of the same cells were also prepared.\nThe reporter genes used were a green fluorescent protein (GFP) reporter gene and a luciferase reporter gene. The GFP reporter gene was used in the form of plasmid pEGFP-N1, obtained from Clontech. The luciferase reporter gene was used in the form of construct pCILuc consisting of the firefly luciferase gene (Luc) inserted into the expresssion vector pCI (Promega, Southampton, England)\nFor these in vitro experiments peptide 12 [K]16XSXGACRRETAWACG (X: ε amino hexanoic acid), SEQ.ID.NO.: 26, was used. […]\nTransfection levels using the luciferase reporter gene was measured as described in the Material and methods section. In the case of the GFP reporter gene, after harvesting the cells were analysed by fluorescence activated cell sorting (FACS) for quantification of the number of fluorescent cells."}, "[3]": {"test_system": "confluent 1HAEo-cells", "test": "Immunofluorescence for tight junction protein occludin", "type": "cell-based, human", "settings": "2 mM EGTA in Opti-MEM, 30 minutes", "experimental": "To observe the double fluorescence labelling, the β-galactosidase-transfected and BrdU-labelled (as detailed above in Assay of cell proliferation) cells were fixed with 70% ethanol in 50 mM glycine buffer, pH 2.0, for 30 minutes at −20° C. The cells were then incubated with a mixture of two primary antibodies, the rabbit anti-p-galactosidase at 1:200 (Chemicon International Inc, Harrow, UK). and the mouse anti-BrdU at 1:10 (BrdU Labelling and Detection Kit; Roche, Basel, Switzerland), followed by incubation with a mixture of FITC-conjugated goat anti-rabbit IgG and texas red labelled horse anti-mouse IgG (Vector Laboratories, Peterborough, UK). Transwell inserts were then excised from the plastic holder and mounted on glass slides with aqueous mountant Vectashield (Vector Laboratories, Peterborough, UK). To observe the effects of EGTA on tight junction, the EGTA-treated cells were immunostained with a rabbit polyclonal antibody against tight junction protein occludin (Zymed, San Francisco, USA) diluted 1:10 with PBS. […] Images were observed and captured with an inverted fluorescence microscope (Olympus IX70, Olympus Optical Company, London, UK) for transwell and a confocal microscope (Leica TCS SP, Exton, Pa., USA) for excised inserts."}, "[4]": {"test_system": "confluent epithelial cells", "test": "Transepithelial resistance after EGTA exposure", "settings": "2 mM EGTA; data not shown"}, "[5]": {"test_system": "confluent 1HAEo-cells", "test": "Binding of FITC-labelled LID complexes to confluent cells", "type": "cell-based, human", "settings": "2 mM EGTA, 4° C.", "experimental": "The effects of EGTA on cell binding were determined by transfection with LID complexes prepared with fluorescein (FITC) labelled peptide. Peptide-12 was labelled with FITC from a labelling kit (Calbiochem, San Diego, USA) and purified by dialyzing in PBS overnight, according to the manufacturer's instruction. The ability of FITC-conjugated peptide-12 to form complexes with plasmid DNA was determined by retardation test, in which the electrophoresis migration of DNA is retarded by forming complexes with the cationic peptide as described previously (Hart et al., 1995). […] The cells were then transfected with apically added LID-FITC for 60 minutes at 4° C., at which the complexes would only bind to cell surface and no internalisation would occur, see(Chu et al (1999), Cornelissen et al (1997), Im et al (1986). The surface binding of the LID complexes was further differentiated from the internalised LID by incubating the cells with 1 μg/ml crystal violet (Sigma, Poole, UK) for 10 minutes at 4° C., to quench the fluorescence of surface-bound LID complexes, see (Ma et al (1997), Van Amers & Van Strijp (1994). The mean numbers of fluorescent particles were then counted in 10 random microscope fields and comparison was made between the data obtained from EGTA-treated or untreated cells."}, "[6]": {"test_system": "1HAEo-cells", "test": "pEGFP transfection efficiency by flow cytometry, 1HAEo- cells, Example 15", "type": "cell-based, human", "settings": "EGTA 2 mM versus no EGTA", "method": "Human airway epithelial cell lines, a normal cell line 1HAEo- and a CF cell line 2CFSMEo-, were used in this study. […] The apical medium was then removed and growth medium was added basolateraly to leave the cells growing at an air-liquid interface. Confluent cells were grown for further 10-14 days and were monitored with an ohmmeter (EVOM; World Precision Instruments, Stevenage, UK) until the transepithelial resistance was greater than 300 Ω·cm before transfection. […] Sub-confluent, proliferating cells were prepared by growing the cells for less then 3 days in growth medium prior to transfection.\nBriefly, stock solutions of the three components of the LID vector complex were prepared first. Plasmid DNA (component D) was diluted in cell culture medium OptiMEM (Life Technologies, Paisley, UK) at a concentration of 0.01 μg/μl. […] The peptide component I was dissolved in Opti-MEM at 0.1 mg/ml. The lipid component L was Lipofectin, a commercially available equimolar mixture of the cationic lipid N-[1-(2,3-dioleyloxy)propyl]-n,n,n-trimethylammonium chloride (DOTMA) and the neutral lipid dioleoyl phosphotidylethanolamine (DOPE), (Life Technologies, Paisley, UK) and was used from purchase at 1 mg/ml. […]"}}}
{"smiles": "O=C(O)CN(CCOCCOCCN(CC(=O)O)CC(=O)O)CC(=O)O", "note": "[EGTA, ethylene glycol-bis(β-aminoethyl ether)-N,N,N′,N′-tetraacetic acid]", "values": [{"measurement": "enhancement of transfection of mouse lung (luciferase, RLU per mg lung protein)", "setting": "[1]; 100 mM EGTA, 8 μg plasmid DNA in 50 μl, intra-tracheal", "result": "about four-fold"}, {"measurement": "lethality", "setting": "[1]; 400 mM EGTA in vivo", "result": "lethal in many cases"}, {"measurement": "effect on efficiency of transfection of sub-confluent cells", "setting": "[2]", "result": "no effect"}, {"measurement": "increase of transfection levels of confluent cells", "setting": "[2]", "result": "four-fold"}, {"measurement": "effect on tight junctions (occludin immunofluorescence)", "setting": "[3]", "result": "disrupted the tight junctions"}, {"measurement": "recovery of transepithelial resistance after removal", "setting": "[4]", "result": "16 to 18", "unit": "h"}, {"measurement": "time after exposure at which transepithelial resistance dropped", "setting": "[4]", "result": "about 10 minutes"}, {"measurement": "binding of LID particles to confluent cells", "setting": "[5]", "result": "greatly increased"}, {"measurement": "increase in transfection efficiency of confluent cells", "setting": "[6]", "result": 4, "unit": "fold"}]}
